Measurements published in patent publication US6596765B2, “Treatment of ocular hypertension and glaucoma” (Sucampo AG, priority 2000, dated 2003).

Tests used:
monkey eye [1] = experiment: IOP test after a single topical ocular instillation in monkeys (Example 1); type: in vivo, cynomolgus monkeys; settings: 0.0005% solution, 35 μL/eye; for intraocular pressure lowering effect (in words): compared with vehicle-treated contralateral eye, Student's t-test
Excerpt: This Example is an IOP test using the monkey eye in which about one tenth the clinical dose of latanoprost is compared in IOP reduction with the same dose of 15-keto latanoprost.
The intraocular pressure lowering effects of the 0.0005% solution of 13,14-dihydro-15-keto-17-phenyl-18,19,20-trinor-PGF2α-isopropyl ester (15-keto-latanoprost) and the 0.0005% solution of 13,14-dihydro-17-phenyl-18,19,20-trinor-PGF2α-isopropyl ester (latanoprost) were compared following a single, topical ocular instillation in monkeys.
The solution containing 15-keto-latanoprost or latanoprost at 0.0005% was prepared with the following vehicle. Composition of the vehicle^1) (/mL): NaCl (4.1 mg), NaH2PO4—H2O (4.6 mg), Na2HPO4—2H2O (5.94 mg), Benzalkonium Chloride (0.2 mg) and water for injection
Five male cynomolgus monkeys purchased from Kasyo Co., Ltd. were used. These monkeys were housed individually in cages for monkeys in a room which was maintained at room temperature of 24±1° C., relative humidity of 55±10%, ventilation rate of about 12 times/hour and 12-hour light-dark cycle (fluorescent lighting: 8:00 a.m. to 8:00 p.m.). The animals were given food pellets for monkeys (PS, Oriental Yeast Co., Ltd.), vegetables and fruits, and allowed free access to tap water from an automatic dispenser. The healthy animals without abnormalities in the anterior segment of the eye were used in this study.
Five monkeys were divided into 2 groups of the group 1 (3 monkeys) and group 2 (2 monkeys). […]
The animals were systemically anesthetized by an intramuscular injection of 5 mg/kg of ketamine hydrochloride (Ketalar®50, Sankyo Co., Ltd.), and the anterior segment of both eyes was anesthetized by a instillation of 0.4% oxybuprocaine hydrochloride (Benoxil® 0.4% solution, Santen Pharmaceutical Co., Ltd.). The animals were fixed in a sitting position, and the intraocular pressure was measured by use of an applanation pneumatonograph (Alcon Japan Ltd.) before, and 2, 4, 8, 12 and 24 hours after the instillation. […]
The data were statistically analyzed with Student's t-test.

monkey eye [2] = experiment: IOP after additional instillation 12 hours after instillation of 0.005% latanoprost in monkeys (Example 2); type: in vivo, cynomolgus monkeys; settings: 30 μL; for effect on IOP of additional instillation, compared with 0.005% latanoprost alone: 0.0005% solution, instilled 12 hours after instillation of 0.005% latanoprost, IOP followed to 32 hours
Excerpt: This Example illustrates the employment of a low dose of 15-keto latanoprost for maintaining a low IOP level following single administration of another IOP reducing agent for obtaining a rapid drop in IOP.
The changes of IOP in 3 different treatment groups were compared to investigate the significance of the presence of 15-keto acid of latanoprost, a 13,14-dihydro-15-keto type metabolite, in maintaining the IOP lowering effect observed after instillation of latanoprost.
15-keto-latanoprost and latanoprost which were synthesized in Ueno Institute for Medical Science were used.
Six male cynomolgus monkeys (body weight: 3.2-3.8 kg) were used. These monkeys were housed individually in cages for monkeys in a monkey rearing room which was maintained at room temperature of 24±1° C., relative humidity of 55±10%, and ventilation of about 12 times/hour and a 12-hour light-dark cycle (fluorescent lighting: 8:00 a.m. to 8:00 p.m.). The animals were given solid food for monkeys (PS, Oriental Yeast Co., Ltd.), vegetables and fruits, and allowed free access to tap water from an automatic dispenser. The healthy animals without abnormalities in the anterior segment were used in this study.
0.0005% and 0.005% latanoprost eye drops and 0.0005% 15-keto-latanoprost eye drops were prepared with a vehicle consisting of the following composition. The composition of the vehicles in 1 mL was as follows: sodium chloride (4.1 mg), sodium hydrogenphosphate-1H2O (4.6 mg), disodium hydrogenphosphate-2H2O (5.94 mg), benzalkonium chloride (0.200 mg) and water for injection (1 mL).
In the present study, changes in IOP after instillation of 0.005% latanoprost alone at the clinical concentration were compared with those in IOP after additional instillation of 0.0005% latanoprost or 0.0005% 15-keto-latanoprost 12 hours after instillation of 0.005% latanoprost to investigate the significance of the presence of a 13,14-dihydro-15-keto type metabolite in maintaining the IOP lowering effect observed after instillation of latanoprost.
The following 3 treatments were given to the right eye of monkeys at the intervals of at least 10 days. […]
After the ocular surface of monkeys was anesthetized with 0.4% oxybuprocaine hydrochloride (Benoxil® 0.4% solution, Santen Pharmaceutical Co., Ltd.) under i.m. systemic anesthesia with 5-7.5 mg/kg of ketamine hydrochloride, IOP was measured with an applanation pneumatonograph (Alcon Japan Ltd.). IOP was measured before instillation and at 4, 8, 12, 16, 20, 24, 28 and 32 hours after instillation of 0.005% latanoprost.

[3] = latanoprost at its clinical concentration; cited from earlier work
[4] = Ocular side effects of topical application (stated, no method described); type: in vivo; settings: 15-keto latanoprost at the dosages described herein
[5] = single instillation of 0.005% latanoprost (clinical concentration), right eye

| Structure (SMILES) | intraocular pressure lowering effect (in words) (monkey eye [1]) | effect on IOP of additional instillation, compared with 0.005% latanoprost alone (monkey eye [2]) | time at which intraocular pressure returned to the predosing level (monkey eye [2]; [5]) | time of maximum reduction of intraocular pressure after instillation (monkey eye [2]; [5]) | ocular side effects (iris pigmentation, IOP spike, hyperemia) [3] | intraocular pressure lowered as compared with the pre-treatment value (monkey eye [1]; 8 hours after the instillation, n=5) | ocular side effects (iridic pigmentation, initial IOP spike, hyperemia) [4] |
| --- | --- | --- | --- | --- | --- | --- | --- |
| CC(C)OC(=O)CCC/C=C\C[C@@H]1[C@@H](CC[C@@H](O)CCc2ccccc2)[C@H](O)C[C@@H]1O [latanoprost, 13,14-dihydro-17-phenyl-18,19,20-trinor-PGF2α-isopropyl ester] | did not lower the intraocular pressure | did not affect IOP | 24 h | 12 h | can cause pigmentation of the iris, a mild IOP spike and/or mild hyperemia | – | – |
| CC(C)OC(=O)CCC/C=C\C[C@@H]1[C@@H](CCC(=O)CCc2ccccc2)[C@H](O)C[C@@H]1O [15-keto-latanoprost, 13,14-dihydro-15-keto-17-phenyl-18,19,20-trinor-PGF2α-isopropyl ester] | statistically significant | maintained at significantly low levels | – | – | – | 2.4 mmHg | does not cause iridic pigmentation, an initial IOP spike nor any hyperemia |
